Test [1] deals with NCI-H460. The test is described as follows: Antiproliferative activity against human NCI-H460 cells after 48 hrs by SRB assay. In kind it is functional, cell-based. The following applies: NCI-H460, 48 h. (In general: In SRB staining, fixed cells bind dye roughly in proportion to their protein.)
For test [2], the system named is PC-3. Description: Antiproliferative activity against human PC3 cells after 48 hrs by SRB assay. In kind it is functional, cell-based. The following applies: PC-3, 48 h.
The test system of test [3] is ASPC1. Description: Antiproliferative activity against human AsPC1 cells after 48 hrs by SRB assay. In kind it is functional, cell-based. The following applies: ASPC1, 48 h.
Test [4] has as its system MCF7. Description: Antiproliferative activity against human MCF7 cells after 48 hrs by SRB assay. In kind it is functional, cell-based. The following applies: MCF7, 48 h.
In test [5] the test system is SW-620. The test is described as follows: Antiproliferative activity against human SW620 cells after 48 hrs by SRB assay. In kind it is functional, cell-based. The following applies: SW-620, 48 h.
In test [6] the test system is SW-620. The test is described as follows: Antiproliferative activity against human SW620 cells at 30 uM after 48 hrs by SRB assay. In kind it is functional, cell-based.
For test [7], the target named is T1, Histone deacetylase (Homo sapiens) (UniProt Q13547+O15379+Q9UBN7+Q92769+Q9UQL6+Q8WUI4+Q9BY41+Q96DB2+P56524+Q9UKV0+Q969S8). The test is described as follows: Inhibition of HDAC in human SW620 cells assessed as acetylated histone-H4 level at 1 uM after 24 hrs by Western blotting analysis. The following applies: SW-620. In kind it is cell-based. (In general: In western blotting, separated proteins are transferred to a membrane and probed.)

For test [8], the target named is T1, Histone deacetylase (Homo sapiens). The test is described as follows: Inhibition of HDAC in human SW620 cells assessed as acetylated histone-H3 level at 1 uM after 24 hrs by Western blotting analysis. In kind it is cell-based. The following applies: SW-620.
In test [9] the test system is ASPC1. The test is described as follows: Ratio of SAHA IC50 to compound IC50 for human AsPC1 cells. In kind it is functional.
The test system of test [10] is SW-620. Description: Ratio of SAHA IC50 to compound IC50 for human SW620 cells. In kind it is functional.

Each structure is given as a SMILES string. pIC50: −log10 of the molar value. Activity calls are given as the source filed them. The calls are words filed in the database; no cut-off is given here.

In the case of `CO/N=C1/C(=O)N(CCCCCCC(=O)NO)c2ccccc21`, the pIC50 in [1] was 6.12; in test [2] it was 5.78; in test [3], 5.91; in test [4], 5.77; in test [5] it was 6.14. Moreover, the result in test [6] was Active. Also, the inhibition entry in test [7] and in test [8] was “Active” in each case.

As for `O=C(CCCCCCN1C(=O)/C(=N\O)c2cccc(Cl)c21)NO`, the pIC50 in test [1] is 5.87; in test [2] it was 5.80; in [3], 5.74; in test [4] it was 5.76; in test [5] it was 5.98. For the same molecule, the inhibition result in test [7] and in test [8] was “Active” in each case.

As for `O=C(CCCCCCN1C(=O)/C(=N\O)c2cc(Cl)ccc21)NO`, the pIC50 in [1] is 6.07; in test [2] it was 6.07; in test [3], 5.73; in test [4], 6.17; in [5], 6.19. The outcome in test [6] was Active. The inhibition entry in test [7] and in test [8] was “Active” each time.

Turning to `CO/N=C1/C(=O)N(CCCCCCC(=O)NO)c2ccc(F)cc21`, the pIC50 in [1] was 6.01; in [2], 5.94; in test [3], 6.01; in test [4] it was 5.62; in test [5] it was 5.95. For the same molecule, the result in test [6] was Active. The inhibition result in [7] and in [8] was “Active” in each case.

On to `CO/N=C1/C(=O)N(CCCCCCC(=O)NO)c2ccc(Cl)cc21`, for which the pIC50 in test [1] was 6.12; in [2], 5.63; in test [3], 6.31; in test [4], 5.81; in test [5], 6.31. Moreover, in [6], the result was Active. Further, the inhibition result in test [7] and in test [8] was “Active” throughout.

For the molecule `CO/N=C1/C(=O)N(CCCCCCC(=O)NO)c2c(Cl)cccc21`, the pIC50 is 6.46 in test [1]; 6.54 in test [2]; 6.20 in test [3]; 6.47 in test [4]; 6.59 in test [5]. Further, the inhibition result in [7] and in test [8] was “Active” in each case.

With `O=C(CCCCCCN1C(=O)/C(=N\O)c2cc([N+](=O)[O-])ccc21)NO`, the pIC50 in test [1] was 5.11; in [2] it was 4.71; in test [3] it was 5.33; in [4], 5.87; in [5], 5.47. For the same molecule, the outcome in test [6] was Active. The inhibition entry in test [7] and in [8] was “inactive” each time.

Consider `CO/N=C1/C(=O)N(CCCCCCC(=O)NO)c2ccc(Br)cc21`, for which the pIC50 is 5.54 in test [1]; 5.05 in [2]; 5.77 in [3]; 5.11 in [4]; 5.63 in test [5]. Moreover, the outcome in test [6] was Active. Besides, the inhibition result in [7] and in test [8] was “Active” each time.

On to `O=C(CCCCCCN1C(=O)/C(=N\O)c2ccccc21)NO`, for which the pIC50 in test [1] is 6.05; in test [2] it was 6.01; in test [3], 5.96; in test [4], 6.10; in test [5] it was 6.19. In test [6], the result was Active. In addition, the inhibition result in [7] and in [8] was “Active” in each case.

On to `CO/N=C1\C(=O)N(CCCCCCC(=O)NO)c2ccc([N+](=O)[O-])cc21`, for which the pIC50 in test [1] was 4.85; in [2] it was 5.77; in test [3], 6.08; in test [4] it was 6.03; in test [5], 5.87. For the same molecule, in test [6], the result was Active. For the same molecule, the inhibition entry in [7] and in test [8] was “inactive” throughout.

As for `CO/N=C1/C(=O)N(CCCCCCC(=O)NO)c2ccc(C)cc21`, the pIC50 was 5.92 in test [1]; 6.46 in test [2]; 5.26 in test [3]; 4.78 in test [4]; 5.97 in [5]. Further, the result in [6] was Active. In addition, the inhibition result in [7] and in test [8] was “inactive” throughout.

On to `O=C(CCCCCCN1C(=O)/C(=N\O)c2cc(Br)ccc21)NO`, for which, in test [9], the “Ratio IC50” value was determined as 45. The pIC50 in test [1] was 6.01; in test [2] it was 5.66; in test [3], 7.10; in test [4] it was 5.75; in test [5] it was 6.54. For the same molecule, the outcome in test [6] was Active. For the same molecule, the inhibition result in test [7] and in [8] was “Active” each time.

As for `Cc1ccc2c(c1)/C(=N/O)C(=O)N2CCCCCCC(=O)NO`, the negative-log IC50 (pIC50) in [1] was 5.68; in test [2], 6.21; in test [3] it was 5.61; in test [4], 5.92; in [5], 6.00. Besides, the outcome in [6] was Active. Moreover, the inhibition result in test [7] and in [8] was “Active” in each case.

`O=C(CCCCCCN1C(=O)/C(=N\O)c2cc(F)ccc21)NO`: the “Ratio IC50” value in test [10] amounted to 30. Also, the pIC50 was 5.82 in [1]; 5.56 in [2]; 5.76 in test [3]; 5.81 in [4]; 6.96 in [5]. Besides, the result in [6] was Active. The inhibition result in test [7] and in test [8] was “Active” throughout.

As usually defined, the pIC50 is the IC50 on a negative log10 scale, so that one unit is a factor of ten. A high value points to a low IC50.
